Experimental data as given in the supplement of paper PMC8882468.

Legend:
Test in all cases: CTG-3D luminescence at 96 h relative to day-0 seeding control (ratio to day 0); higher = more growth / less cytotoxicity; PDxO 3D drug screen (set 2), 96 h, CTG-3D normalised to day-0 seeding control.
HCI-015 = system: HCI-015 (organoid from a triple-negative breast cancer xenograft)
HCI-019 = system: HCI-019 (organoid from a triple-negative breast cancer xenograft)
HCI-008 = system: HCI-008 (organoid from a HER2-enriched breast cancer xenograft)
HCI-027 = system: HCI-027 (organoid from a triple-negative breast cancer xenograft)
HCI-025 = system: HCI-025 (organoid from a breast cancer xenograft)

O=C(c1cc(Cc2n[nH]c(=O)c3ccccc23)ccc1F)N1CCN(C(=O)C2CC2)CC1 [olaparib]
CTG-3D luminescence at 96 h
Settings | 12.5 pM | 0.00025 µM | 0.005 µM | 0.1 µM | 1 µM | 10 µM | 100 µM | 625 fM
HCI-008, days in culture: 325 | 1.39 | 1.88 | 1.46 | 3.33 | 2.71 | 1.99 | 0.484 | 1.65
HCI-008, days in culture: 340 | 1.45 | 2.1 | 1.84 | 1.46 | 1.67 | – | 0.958 | 1.34
HCI-008, days in culture: 354 | 1.36 | 1 | 1.35 | 1.2 | 1.22 | 1.33 | 0.836 | 1.44
HCI-008, days in culture: 382 | 1.49 | 1.46 | 1.23 | 2 | 0.89 | 0.955 | 0.204 | 1.8
HCI-015, days in culture: 333 | 1.88 | 1.11 | 1.59 | 1.95 | 0.972 | 0.511 | 0.241 | 1.03
HCI-015, days in culture: 355 | 2.43 | 3.28 | 1.71 | 1.6 | 0.993 | 0.516 | 0.951 | 2.1
HCI-015, days in culture: 369 | 2.43 | 1.41 | 2.36 | 1.91 | 1.9 | 1.05 | 1.24 | 2.02
HCI-019, days in culture: 173 | 2.78 | 1.9 | 2.2 | 2.31 | 0.982 | 0.711 | 1.32 | 1.96
HCI-019, days in culture: 194 | 0.984 | 1.95 | 2.68 | 1.65 | 1.48 | 0.946 | 0.789 | 2.41
HCI-019, days in culture: 215 | 2 | 2.06 | 1.04 | 1.59 | 1.06 | 0.36 | 0.254 | 1.33
HCI-025, days in culture: 175 | 1.97 | 2.33 | 1.9 | 1.95 | 3.08 | 2.2 | 0.866 | 2.02
HCI-025, days in culture: 189 | 1.46 | 2.11 | 1.91 | 2.25 | 1.86 | 1.28 | 0.825 | 2.78
HCI-025, days in culture: 212 | 3.74 | 3.65 | 1.79 | 1.22 | 1.32 | 1.72 | 0.66 | 2
HCI-025, days in culture: 224 | 1.96 | 1.72 | 1.81 | 1.9 | 2.05 | 1.41 | 0.478 | 1.81
HCI-027, days in culture: 145 | 1.79 | 3.31 | 2.66 | 1.56 | 1.71 | 2.13 | 0.976 | 1.89
HCI-027, days in culture: 158 | 1.27 | 3.16 | 2.16 | 2.6 | 1.87 | 3.12 | 1.79 | 3.17
HCI-027, days in culture: 164 | 4.1 | 1.37 | 2.13 | 2.08 | 1.58 | 0.874 | 0.555 | 2.58
HCI-027, days in culture: 176 | 3.94 | 1.97 | 1.54 | 1.61 | 2.6 | 0.771 | 0.452 | 1.65
HCI-027, days in culture: 186 | 0.87 | 1.38 | 2.3 | 3.57 | 1.26 | 1.58 | 0.34 | 3.34

C[C@@H](Nc1cc(F)cc(F)c1)c1cc(C(=O)N(C)C)cc2c(=O)cc(N3CCOCC3)oc12 [AZD-8186]
CTG-3D luminescence at 96 h
Settings | 12.5 pM | 0.00025 µM | 0.005 µM | 0.1 µM | 1 µM | 10 µM | 100 µM | 625 fM
HCI-008, days in culture: 325 | 1.16 | 2.3 | 1.7 | 3.47 | 3.65 | 1.03 | 0.315 | 1.35
HCI-008, days in culture: 340 | 1.72 | 2.42 | 1.8 | 1.21 | 1.62 | – | 0.345 | 1.48
HCI-008, days in culture: 354 | 1.26 | 1.28 | 1.82 | 1.24 | 1.26 | 0.634 | 0.353 | 1.32
HCI-008, days in culture: 382 | 1.77 | 1.86 | 1.54 | 1.44 | 1.16 | 0.995 | 0.193 | 1.86
HCI-015, days in culture: 333 | 2.09 | 1.46 | 1.76 | 1.33 | 1.37 | 0.684 | 0.452 | 1.77
HCI-015, days in culture: 355 | 1.76 | 3.09 | 1.3 | 1.46 | 1.12 | 2.35 | 0.668 | 1.57
HCI-015, days in culture: 369 | 2.35 | 1.7 | 1.96 | 1.84 | 2.18 | 1.24 | 1.01 | 1.96
HCI-019, days in culture: 173 | 3.42 | 1.4 | 1.36 | 2.98 | 2.28 | 0.532 | 0.37 | 1.05
HCI-019, days in culture: 194 | 1.94 | 1.36 | 1.46 | 2.1 | 1.87 | 1.3 | 0.367 | 1.03
HCI-019, days in culture: 215 | 1.9 | 1.48 | 0.854 | 1.62 | 0.82 | 1.39 | 0.374 | 1.8
HCI-025, days in culture: 175 | 1.63 | 2.47 | 1.8 | 1.98 | 2.4 | 3.48 | 1.34 | 1.51
HCI-025, days in culture: 189 | 2.22 | 1.46 | 1.89 | 1.5 | 1.81 | 1.88 | 0.528 | 3.16
HCI-025, days in culture: 212 | 1.07 | 3.57 | 2.79 | 1.25 | 0.857 | 1.27 | 1.2 | 1.56
HCI-025, days in culture: 224 | 1.99 | 2.38 | 1.66 | 2 | 2.68 | 1.8 | 1.09 | 2.03
HCI-027, days in culture: 145 | 1.31 | 2.65 | 1.81 | 1.94 | 0.882 | 1.12 | 0.387 | 1.74
HCI-027, days in culture: 158 | 0.987 | 2.74 | 2.32 | 1.39 | 1.24 | 1.87 | 0.581 | 4.36
HCI-027, days in culture: 164 | 1.52 | 0.955 | 2.29 | 2.94 | 1.28 | 1.36 | 0.618 | 1.46
HCI-027, days in culture: 176 | 2.9 | 2.55 | 1.1 | 1.9 | 1.15 | 0.842 | 0.201 | 1.89
HCI-027, days in culture: 186 | 1.9 | 2.1 | 2.54 | 1.7 | 0.519 | 1.46 | 0.286 | 2.6

CC(C)n1nc(-c2ccc3oc(N)nc3c2)c2c(N)ncnc21 [sapanisertib]
CTG-3D luminescence at 96 h
Settings | 12.5 pM | 0.00025 µM | 0.005 µM | 0.1 µM | 1 µM | 10 µM | 100 µM | 625 fM
HCI-008, days in culture: 325 | 1.51 | 1.96 | 1.64 | 0.99 | 0.826 | 0.32 | 0.112 | 1.88
HCI-008, days in culture: 340 | 0.668 | 2.32 | 1.51 | 0.592 | 0.593 | – | 0.0751 | 0.965
HCI-008, days in culture: 354 | 1.18 | 1.2 | 2.84 | 0.615 | 0.502 | 0.229 | 0.122 | 1.31
HCI-008, days in culture: 382 | 1.81 | 1.93 | 1.22 | 0.751 | 0.282 | 0.304 | 0.0604 | 1.7
HCI-015, days in culture: 333 | 1.82 | 1.45 | 1.21 | 0.567 | 0.461 | 0.114 | 0.0973 | 1.56
HCI-015, days in culture: 355 | 2.17 | 1.74 | 1.65 | 1.3 | 0.564 | 0.557 | 0.233 | 1.38
HCI-015, days in culture: 369 | 2.06 | 1.61 | 2.17 | 0.797 | 0.611 | 0.449 | 0.336 | 1.68
HCI-019, days in culture: 173 | 2.61 | 0.967 | 1.48 | 1.01 | 0.438 | 0.352 | 0.0514 | 1.71
HCI-019, days in culture: 194 | 1.66 | 1.19 | 1.63 | 0.737 | 0.441 | 0.49 | 0.0673 | 3.01
HCI-019, days in culture: 215 | 1.78 | 1.21 | 1.14 | 0.664 | 0.531 | 0.192 | 0.0431 | 1.84
HCI-025, days in culture: 175 | 1.69 | 1.73 | 1.62 | 0.506 | 0.401 | 0.466 | 0.283 | 2.01
HCI-025, days in culture: 189 | 2.16 | 2.67 | 1.63 | 0.619 | 0.34 | 0.244 | 0.0962 | 3.34
HCI-025, days in culture: 212 | 1.26 | 1.57 | 2.69 | 0.0755 | 0.227 | 0.183 | 0.277 | 1.33
HCI-025, days in culture: 224 | 2.13 | 1.98 | 1.91 | 0.411 | 0.423 | 0.26 | 0.17 | 1.86
HCI-027, days in culture: 145 | 1.73 | 1.87 | 1.67 | 0.675 | 0.62 | 0.3 | 0.158 | 1.76
HCI-027, days in culture: 158 | 1.38 | 2.26 | 2.09 | 1.46 | 0.941 | 0.992 | 0.124 | 3.36
HCI-027, days in culture: 164 | 1.86 | 1.51 | 1.15 | 1.08 | 1.1 | 0.369 | 0.41 | 2.35
HCI-027, days in culture: 176 | 3.48 | 2.27 | 1.45 | 1.22 | 0.927 | 0.364 | 0.195 | 2.69
HCI-027, days in culture: 186 | 0.934 | 1.54 | 1.53 | 1.25 | 0.548 | 0.717 | 0.142 | 2.62
